The compounds below were run on Human peripheral blood mononuclear cells (assay: Human Concanavalin-A Proliferation Assay (Con HU Assay)). Conditions: Homo sapiens, PBMC, 72 h, concentration 1 μm (in parentheses in the cell); concanavalin-A stimulated human PBMC, 3 days; read-out: % Inhibition of proliferation (at concentrations of 1,10, or 100 μm).
Assay type: cell-based
Method: Human peripheral blood mononuclear cells were cultured in RPMI 1640 medium supplemented with 10 μg/ml gentamicin, 50 μM 2-mercaptoethanol, 1X MEM non-essential amino acids (Sigma Chemical Co., St. Louis, Mo.), 100 U/ml sodium penicillin G, 100 μg/ml streptomycin sulfate, 2 mM L-glutamine, 1 mM sodium pyruvate (Life Technologies, Grand Island, N.Y.) and 10% fetal bovine serum (Hyclone, Logan, Utah) at 37° C. with 5% CO2.
The procedure in Current Protocols in Immunology, Volume 1, Published by the Greene Publishing Associates and John Wiley & Sons, Inc, Edited by Richard Coico, 1994, hereby incorporated by reference, was followed. Briefly, 50 ml of blood from human volunteers was collected in heparinized syringes and mixed. Blood was diluted 1:1 in Dulbecco's phosphate buffered saline (D-PBS) (Life Technologies, Grand Island, N.Y.) and mixed. PBS-blood mixture was overlaid into 50 ml centrifuge tubes containing 15 ml Histopaque 1077 (Sigma Chemical Co., St. Louis, Mo.) and centrifuged at 500 X G for 30 minutes at room temperature. Cells at the interface from each Histopaque tube were removed and mixed with 5 ml of D-PBS. Each cell suspension was diluted to 50 ml with D-PBS, mixed and centrifuged at 400 X G for 15 minutes at room temperature. After most of the supernatant was removed, cells were resuspended to 40 ml with D-PBS per tube (2 tubes per donor). Cells were centrifuged at 400 X G for 10 minutes at room temperature. Pellets were resuspended in 10 ml of supplemented RPMI 1640 and cell number determined with a Coulter counter. Cells were diluted to a concentration of 0.5×10^6 cells per mL.
The procedure in Current Protocols in Immunology, Volume 1, Published by the Greene Publishing Associates and John Wiley & Sons, Inc, Edited by Richard Coico, 1994, hereby incorporated by reference, was followed. Briefly, test compounds were added to appropriate wells on 96-well tissue culture plates (Corning Glass Works, Corning, N.Y.) in 20 µl of supplemented RPMI 1640. Human peripheral blood mononuclear cells were added to each well in 100 μl volumes (final cell concentration equal to 50,000 cells per well). After 15 minutes, 100 μl of 5 μg/ml concanavalin-A (Sigma Chemical Co., St. Louis, Mo.) in supplemented RPMI 1640 was added to a final concentration of 2.5 μg/ml. Plates were incubated for 3 days at 37° C. with 5% CO2. On day 3, plates were pulsed with 0.5 μCi/well tritiated thymidine (New England Nuclear, Boston, Mass.). After 6 hours, plates were harvested on a Tomatec 96-well havester (Orange, Conn.). Glass filter mats were counted on a Matrix 9600 direct beta counter (Packard, Meriden, Conn.).

Compound | inhibition at 1 µM [%]
O=C(Nc1ccc(-n2nc(C(F)(F)F)cc2C(F)(F)F)cc1)c1ccc(Br)o1 [Example 251, N-[4-[3,5-bis(trifluoromethyl)-1H-pyrazol-1-yl]phenyl]-5-bromo-2-furancarboxamide] | 50
O=C1CCC(C(=O)Nc2ccc(-n3nc(C(F)(F)F)cc3C(F)(F)F)cc2)N1 (stereo not drawn) [Example 255, N-[4-[3,5-bis(trifluoromethyl)-1H-pyrazol-1-yl]phenyl]-5-oxo-2-pyrrolidinecarboxamide] | 12

Same assay, conditions: Homo sapiens, PBMC, 72 h, concentration 10 μm (in parentheses in the cell); concanavalin-A stimulated human PBMC, 3 days; read-out: % Inhibition of proliferation (at concentrations of 1,10, or 100 μm)

Compound | inhibition at 10 µM [%]
O=C(Nc1ccc(-n2nc(C(F)(F)F)cc2C(F)(F)F)cc1)c1cncc(Br)c1 [Example 256, N-[4-[3,5-bis(trifluoromethyl)-1H-pyrazol-1-yl]phenyl]-5-bromo-3-pyridinecarboxamide] | 100
O=C(Nc1ccc(-n2nc(C(F)(F)F)cc2C(F)(F)F)cc1)c1cc(Br)c(Br)s1 [Example 263, N-[4-[3,5-bis(trifluoromethyl)-1H-pyrazol-1-yl]phenyl]-2,3-dibromo-5-thiophenecarboxamide] | 100
O=C(Nc1ccc(-n2nc(C(F)(F)F)cc2C(F)(F)F)cc1)c1cc(Cl)cnc1Cl [Example 270, N-[4-[3,5-bis(trifluoromethyl)-1H-pyrazol-1-yl]phenyl]-2,5-dichloro-3-pyridinecarboxamide] | 100
COC(=O)c1cc(NC(=O)c2cc(Br)ccc2Cl)ccc1-n1nc(C(F)(F)F)cc1C(F)(F)F [Example 274, methyl 2-[3,5-bis(trifluoromethyl)-1H-pyrazol-1-yl]-5-[(5-bromo-2-chlorobenzoyl)amino]benzoate] | 100

Same assay, conditions: Homo sapiens, PBMC, 72 h, concentration 100 μm (in parentheses in the cell); concanavalin-A stimulated human PBMC, 3 days; read-out: % Inhibition of proliferation (at concentrations of 1,10, or 100 μm)

Compound | inhibition at 100 µM [%]
Cc1cc(C(F)(F)F)nn1-c1ccc(NC(=O)c2ccc(Cl)cc2)cc1 [Example 281, 4-chloro-N-[4-[5-methyl-3-(trifluoromethyl)-1H-pyrazol-1-yl]phenyl]benzamide] | 94

Same assay, conditions: Homo sapiens, PBMC, concanavalin-A stimulated human PBMC, tritiated thymidine

Compound | IC50 [nM]
O=C(Nc1ccc(-n2nc(C(F)(F)F)cc2C(F)(F)F)cc1)c1cncc(Br)c1 [Example 256, N-[4-[3,5-bis(trifluoromethyl)-1H-pyrazol-1-yl]phenyl]-5-bromo-3-pyridinecarboxamide] | 250
O=C(Nc1ccc(-n2nc(C(F)(F)F)cc2C(F)(F)F)cc1)c1cc(Br)c(Br)s1 [Example 263, N-[4-[3,5-bis(trifluoromethyl)-1H-pyrazol-1-yl]phenyl]-2,3-dibromo-5-thiophenecarboxamide] | 2930
O=C(Nc1ccc(-n2nc(C(F)(F)F)cc2C(F)(F)F)cc1)c1cc(Cl)cnc1Cl [Example 270, N-[4-[3,5-bis(trifluoromethyl)-1H-pyrazol-1-yl]phenyl]-2,5-dichloro-3-pyridinecarboxamide] | 228
COC(=O)c1cc(NC(=O)c2cc(Br)ccc2Cl)ccc1-n1nc(C(F)(F)F)cc1C(F)(F)F [Example 274, methyl 2-[3,5-bis(trifluoromethyl)-1H-pyrazol-1-yl]-5-[(5-bromo-2-chlorobenzoyl)amino]benzoate] | 2180
Cc1cc(C(F)(F)F)nn1-c1ccc(NC(=O)c2ccc(Cl)cc2)cc1 [Example 281, 4-chloro-N-[4-[5-methyl-3-(trifluoromethyl)-1H-pyrazol-1-yl]phenyl]benzamide] | 1060
Nc1cnccc1C(=O)Nc1ccc(-n2nc(C(F)(F)F)cc2C(F)(F)F)cc1 [Example 290, 3-amino-N-(4-(3,5-bis(trifluoromethyl)-1H-pyrazol-1-yl)phenyl)isonicotinamide] | 373
O=C(Nc1ccc(-n2nc(C(F)(F)F)cc2C(F)(F)F)nc1)c1ccccc1F [Example 292, N-(6-(3,5-bis(trifluoromethyl)-1H-pyrazol-1-yl)-3-pyridinyl)-2-fluorobenzamide] | 258
COC(=O)c1cc(NC(=O)c2ccccc2F)ccc1-n1nc(C(F)(F)F)cc1C(F)(F)F [Example 293, methyl 2-(3,5-bis(trifluoromethyl)-1H-pyrazol-1-yl)-5-((2-fluorobenzoyl)amino)benzoate] | 409
NCc1ccc(C(=O)Nc2ccc(-n3nc(C(F)(F)F)cc3C(F)(F)F)cc2)c(Cl)c1 [Example 294, 4-(aminomethyl)-N-(4-(3,5-bis(trifluoromethyl)-1H-pyrazol-1-yl)phenyl)-2-chlorobenzamide] | 299
O=C(Nc1ccc(-n2nc(C(F)(F)F)cc2C(F)(F)F)cn1)c1ccccc1F [Example 297, N-(5-(3,5-bis(trifluoromethyl)-1H-pyrazol-1-yl)-2-pyridinyl)-2-fluorobenzamide] | 251
Nc1cc(NC(=O)c2ccccc2F)ccc1-n1nc(C(F)(F)F)cc1C(F)(F)F [Example 298, N-{3-amino-4-[3,5-bis(trifluoromethyl)-1H-pyrazol-1-yl]phenyl}-2-fluorobenzamide] | 332
N#Cc1cc(NC(=O)c2ccccc2F)ccc1-n1nc(C(F)(F)F)cc1C(F)(F)F [Example 299, N-(4-(3,5-bis(trifluoromethyl)-1H-pyrazol-1-yl)-3-cyanophenyl)-2-fluorobenzamide] | 269
N#Cc1cc(C(F)(F)F)nn1-c1ccc(NC(=O)c2ccccc2F)cc1 [Example 300, N-{4-[5-cyano-3-(trifluoromethyl)-1H-pyrazol-1-yl]phenyl}-2-fluorobenzamide] | 79
O=C(Nc1ccc(-n2nc(C(F)(F)F)cc2-c2ccco2)cc1)c1ccccc1F [Example 301, 2-fluoro-N-(4-(5-(2-furyl)-3-(trifluoromethyl)-1H-pyrazol-1-yl)phenyl)benzamide] | 232
N#Cc1cc(C(F)(F)F)nn1-c1ccc(NC(=O)c2cc(F)cc(F)c2F)cc1 [Example 307, N-(4-(5-cyano-3-(trifluoromethyl)-1H-pyrazol-1-yl)phenyl)-2,3,5-trifluorobenzamide] | 79
O=C(Nc1ccc(-n2nc(C(F)(F)F)cc2-c2cccs2)cc1)c1ccccc1F [Example 308, 2-fluoro-N-(4-(5-(2-thienyl)-3-(trifluoromethyl)-1H-pyrazol-1-yl)phenyl)benzamide] | 309
CSc1cc(C(F)(F)F)nn1-c1ccc(NC(=O)c2ccccc2F)cc1 [Example 309, 2-fluoro-N-(4-(5-(methylsulfanyl)-3-(trifluoromethyl)-1H-pyrazol-1-yl)phenyl)benzamide] | 32
COc1cc(C(F)(F)F)nn1-c1ccc(NC(=O)c2ccncc2)cc1 [Example 312, N-(4-(5-methoxy-3-(trifluoromethyl)-1H-pyrazol-1-yl)phenyl)isonicotinamide] | 298
O=C(Nc1ccc(-n2nc(-c3ccncc3)cc2C(F)(F)F)cc1)c1ccncc1F [Example 318, 3-fluoro-N-(4-(3-(4-pyridinyl)-5-(trifluoromethyl)-1H-pyrazol-1-yl)phenyl)isonicotinamide] | 258
CCOc1cc(C(F)(F)F)nn1-c1ccc(NC(=O)c2cccnc2F)cc1 [Example 319, N-(4-(5-ethoxy-3-(trifluoromethyl)-1H-pyrazol-1-yl)phenyl)-2-fluoronicotinamide] | 219
O=C(Nc1ccc(-n2nc(C(F)(F)F)cc2OC(F)F)cc1)c1ccncc1 [Example 322, N-(4-(5-(difluoromethoxy)-3-(trifluoromethyl)-1H-pyrazol-1-yl)phenyl)isonicotinamide] | 238
O=C(Nc1ccc(-n2nc(C(F)(F)F)cc2Cl)cc1)c1cccnc1F [Example 325, N-(4-(5-chloro-3-(trifluoromethyl)-1H-pyrazol-1-yl)phenyl)-2-fluoronicotinamide] | 172
O=C(Nc1ccc(-n2nc(C(F)(F)F)cc2[N+](=O)[O-])cc1)c1ccccc1F [Example 326, 2-fluoro-N-(4-(5-nitro-3-(trifluoromethyl)-1H-pyrazol-1-yl)phenyl)benzamide] | 166
O=C(Nc1ccc(-n2nc(-c3cccnc3)cc2C(F)F)cc1)c1ccncc1F [Example 329, N-(4-(5-(difluoromethyl)-3-(3-pyridinyl)-1H-pyrazol-1-yl)phenyl)-3-fluoroisonicotinamide] | 303
N#Cc1cc(-c2ccccn2)nn1-c1ccc(NC(=O)c2ccncc2F)cc1 [Example 330, N-(4-(5-cyano-3-(2-pyridinyl)-1H-pyrazol-1-yl)phenyl)-3-fluoroisonicotinamide] | 169
Cc1nnsc1C(=O)Nc1ccc(-n2nc(-c3cccnc3)cc2C#N)cc1 [Example 331, N-(4-(5-cyano-3-(3-pyridinyl)-1H-pyrazol-1-yl)phenyl)-4-methyl-1,2,3-thiadiazole-5-carboxamide] | 220
O=C(Nc1ccc(-n2nc(C(F)(F)F)cc2Br)cc1)c1ccncc1F [Example 332, N-(4-(5-bromo-3-(trifluoromethyl)-1H-pyrazol-1-yl)phenyl)-3-fluoroisonicotinamide] | 44
O=C(Nc1ccc(-n2nc(C(F)(F)F)cc2[N+](=O)[O-])cc1)c1ccncc1F [Example 333, 3-fluoro-N-(4-(5-nitro-3-(trifluoromethyl)-1H-pyrazol-1-yl)phenyl)isonicotinamide] | 410
O=C(Nc1ccc(-n2nc(-c3cccnc3)cc2[N+](=O)[O-])cc1)c1ccncc1F [Example 334, 3-fluoro-N-{4-[5-nitro-3-(3-pyridinyl)-1H-pyrazol-1-yl]phenyl}isonicotinamide] | 297

Source: patent US20010044445A1, “AZOLE INHIBITORS OF CYTOKINE PRODUCTION” (priority 1999, published 2001)
